According to patent publication US9394555B2, “Compositions comprising a polypeptide having cellulolytic enhancing activity and a dioxy compound and uses thereof” (priority 2010, dated 2016):

Experiments:
[1] = system: T. aurantiacus CEL5A endoglucanase II and P. brasilianum CEL3A beta-glucosidase; assay: Microcrystalline cellulose conversion assay I (Examples 8, 9) without GH61 polypeptide; format: biochemical, Thermoascus aurantiacus; Penicillium brasilianum; details: dioxy compound 0.3% w/w + endoglucanase II + beta-glucosidase (5 mg/g each), no GH61; 96 hours, at either 50° C. or 60° C.
Procedure: (§1) A 5% microcrystalline cellulose slurry was prepared by addition of 2.5 g of AVICEL®PH101 (Sigma-Aldrich, St. Louis, Mo., USA) to a graduated 50 ml screw-cap conical tube followed by 15 ml of 1 M sodium acetate pH 5 and 1 ml of 100 mM MnSO4 and approximately 20 ml of deionizer water. Each conical tube was then mixed thoroughly by shaking/vortexing, and adjusted to 50 ml total with deionized water and mixed again. Contents of the tube were then quickly transferred to a 100 ml beaker and stirred rapidly with a magnetic stirrer. Five hundred μl aliquots of the 5% AVICEL® slurry were pipetted into wells of a 2.0 ml 96-deepwell plate (Axygen, Union City, Calif., USA) using a 1000 μl micropipette with a wide aperture tip (end of tip cut off about 2 mm from the base). Three hundred μl of either deionized water or a 1% dioxy compound solution (dissolved in deionized water) was added to each well.
(§2) The dioxy compounds assayed include caffeic acid (Sigma-Aldrich, St. Louis, Mo., USA), dichlorophenolindophenol (DCPIP; Sigma-Aldrich, St. Louis, Mo., USA), ethyl gallate (Sigma-Aldrich, St. Louis, Mo., USA), gallic acid (Sigma-Aldrich, St. Louis, Mo., USA), 3,4-dihydroxybenzoic acid (Sigma-Aldrich, St. Louis, Mo., USA), pyrocatechol (Sigma-Aldrich, St. Louis, Mo., USA), pyrogallol (Sigma-Aldrich, St. Louis, Mo., USA), sinapinic acid (3,5 dimethoxy-4-hydroxy cinnamic acid; Apin Chemicals LTD, Abingdon, UK), and tannic acid (Sigma-Aldrich, St. Louis, Mo., USA).
(§3) Enzyme mixtures were prepared and then added simultaneously to all wells in a volume of 200 μl, for a total of 1 ml in each reaction. […] All experiments reported were performed in triplicate.
(§4) After approximately 4 days, the deep-well plate was removed from the incubator and chilled overnight to 4° C. The plate was then mixed well by inversion and briefly centrifuged at 52×g in a SORVALL® RT7 centrifuge (Thermo Fisher Scientific, Waltham, Mass., USA) for 10 seconds. Samples were then mixed by pipetting, and 200 μl from each well were transferred to a MULTISCREEN® HV centrifuge filter plate assembly (Millipore, Bedford, Mass., USA). The centrifuge filter plate assembly was centrifuged at 2000 rpm in a SORVALL® RT7 centrifuge for 20 minutes. […] Sugars were detected using a refractive index detector (Agilent Technologies, Inc., Santa Clara, Calif., USA) with quantification by integration compared to purified sugar standards.
(§5) In this assay only glucose was measured since beta-glucosidase was at high levels in all samples but the controls.
(§6) A limit digest was performed to determine the total concentration accessible glucose equivalents using 100 mg of T. reesei cellulase (CELLIC™ CTec, Novozymes A/S, Bagsvaerd, Denmark) per gram cellulose, Triplicate data points were averaged and standard deviation was calculated.

[2] = target: T. aurantiacus GH61A polypeptide (Thermoascus aurantiacus, UniProt G3XAP7, N13Y); assay: Microcrystalline cellulose conversion assay II (Examples 10, 11), T. reesei CEL7A cellobiohydrolase I + A. oryzae CEL3A beta-glucosidase; format: biochemical; details: 72 hours, 50° C.; for conversion (hydrolysis) of the microcrystalline cellulose: dioxy compound 0.1% w/w alone, no enzymes
Sequence of T. aurantiacus GH61A polypeptide (G3XAP7 whole entry N13Y): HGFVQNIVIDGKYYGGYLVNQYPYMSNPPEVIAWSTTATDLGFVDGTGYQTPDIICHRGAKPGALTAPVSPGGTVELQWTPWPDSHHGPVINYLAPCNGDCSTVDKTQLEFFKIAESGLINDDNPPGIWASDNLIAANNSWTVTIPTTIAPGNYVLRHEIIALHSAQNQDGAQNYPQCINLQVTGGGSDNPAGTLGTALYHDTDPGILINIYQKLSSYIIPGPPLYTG
Procedure: A 5% microcrystalline cellulose slurry was prepared by addition of 2.5 g of AVICEL® PH101 to a graduated 50 ml screw-cap conical tube followed by approximately 40 ml of deionized water. Each conical tube was then mixed thoroughly by shaking/vortexing, and adjusted to 50 ml total with deionized water and mixed again. For samples containing dioxy compounds, a similar slurry was prepared by the addition of 100 mg of solid dioxy compound and 2.5 g of AVICEL® PH101 to a graduated 50 ml screw-cap conical tube followed by approximately 40 ml of deionized water. Each conical tube was then mixed thoroughly by shaking/vortexing, and adjusted to 50 ml total with deionized water and mixed again.
The dioxy compounds assayed include caffeic acid, dichlorophenolindophenol (DCPIP), ethyl gallate, gallic acid, 3,4-dihydroxybenzoic acid, pyrocatechol, pyrogallol, sinapinic acid (3,5 dimethoxy-4-hydroxy cinnamic acid), and tannic acid.
In all cases, the contents of the tube (5% microcrystalline cellulose slurry with or without 0.2% dioxy compound) were then quickly transferred to a 100 ml beaker and stirred rapidly with a magnetic stirrer. Five hundred μl aliquots of the 5% AVICEL® slurry were pipetted into wells of a 2.0 ml 96-deepwell plate (Axygen, Union City, Calif.) using a 1000 μl micropipette with a wide aperture tip (end of tip cut off about 2 mm from the base). One hundred μl of deionized water and 300 μl of 3.33 mM MnSO4-500 mM sodium acetate pH 5 were then added to each well. Enzyme mixtures were prepared and then added simultaneously to all wells in a volume of 100 μl, for a total of 1 ml in each reaction. […] All experiments reported were performed in triplicate.
as §4, with “Primary analysis of the hydrolysis reactions was performed using an AGILENT® 1100 HPLC with CHEMSTATION® software equipped with an AMINEX™ HPX-87H column. After” for “After”, “centrifuge” for “centrifuge (Thermo Fisher Scientific, Waltham, Mass., USA)”, “assembly.” for “assembly (Millipore, Bedford, Mass., USA).”, “detector” for “detector (Agilent Technologies, Inc., Santa Clara, Calif., USA)”
All HPLC data processing was performed using MICROSOFT EXCEL™ software. […] In this assay only glucose was measured since beta-glucosidase was at high levels in all samples but the controls. The degree of cellulose conversion was calculated using Equation 1. Triplicate data points were averaged and standard deviation was calculated.
The microcrystalline cellulose hydrolysis assay was performed as described in Example 10.
Data were collected and analyzed, as described in Example 10, after 72 hours of incubation at 50° C.

[3] = system: T. terrestris GH61E polypeptide; assay: Microcrystalline cellulose conversion assay I (Examples 8, 9) with T. terrestris GH61E polypeptide; format: biochemical, Thielavia terrestris; details: dioxy compound 0.3% w/w + T. terrestris GH61E polypeptide (10 mg/g) + endoglucanase II + beta-glucosidase (5 mg/g each), 96 hours
Procedure: as §1, §2, §3, §4, §5, §6

## CCOC(=O)c1cc(O)c(O)c(O)c1 [ethyl gallate]
[1]
  change in conversion of microcrystalline cellulose compared to the enzymes in the absence of the dioxy compound: no significant change
[2]
  conversion (hydrolysis) of the microcrystalline cellulose: no significant hydrolysis
[3]; 50° C.
  conversion of microcrystalline cellulose: 6.0±0.3%
[3]; 60° C.
  conversion of microcrystalline cellulose: 6.2±0.1%

## Oc1ccccc1O [pyrocatechol]
[1]
  change in conversion of microcrystalline cellulose compared to the enzymes in the absence of the dioxy compound: no significant change
[2]; dioxy compound 0.1% w/w + cellobiohydrolase I + beta-glucosidase (5 mg/g each), no GH61
  conversion of the microcrystalline cellulose: no significant change
[2]
  conversion (hydrolysis) of the microcrystalline cellulose: no significant hydrolysis
[3]; 50° C.
  conversion of microcrystalline cellulose: 7.4±0.2%
[3]; 60° C.
  conversion of microcrystalline cellulose: 7.9±0.1%

## Oc1cccc(O)c1O [pyrogallol]
[1]
  change in conversion of microcrystalline cellulose compared to the enzymes in the absence of the dioxy compound: no significant change
[2]
  conversion (hydrolysis) of the microcrystalline cellulose: no significant hydrolysis
[3]; 50° C.
  conversion of microcrystalline cellulose: 7.1±0.5%
[3]; 60° C.
  conversion of microcrystalline cellulose: 9.5±0.1%
